Measured values: the supplement of paper PMC10307832

Assays:
Experiment in all cases: relative viability (nuclei count vs DMSO), 5 days (fraction); higher = more cells survive
NCI-H1734 = system: NCI-H1734
Summary of the method: (§1)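 After 5 days of treatment, lung cancer cells in 1536-well plates were fixed and stained in a single step (final 0.05% Triton X-100, 1% formaldehyde, 1 ug/ml Hoechst) and their nuclei counted on 4× images. Treatment had been applied by pin tool the day after seeding as one drug alone or as a fixed anchor-drug dose with five library-drug doses (not always all listed) in √10 steps. Relative viability is the nuclei count of treated wells divided by that of vehicle wells, and values are medians of duplicate plates.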

NCI-H2342 = system: NCI-H2342
Summary of the method: as §1

NCI-H1793 = system: NCI-H1793
Summary of the method: as §1

HOP-62 = system: HOP-62
Summary of the method: as §1

NCI-H2347 = system: NCI-H2347
Summary of the method: as §1

NCI-H647 = system: NCI-H647
Summary of the method: as §1

EKVX = system: EKVX
Summary of the method: as §1

SK-MES-1 = system: SK-MES-1
Summary of the method: as §1

NCI-H1355 = system: NCI-H1355
Summary of the method: as §1

NCI-H838 = system: NCI-H838
Summary of the method: as §1

COR-L 105 = system: COR-L 105
Summary of the method: as §1

NCI-H1993 = system: NCI-H1993
Summary of the method: as §1

NC(=O)Nc1cc(-c2cccc(F)c2)sc1C(=O)N[C@H]1CCCNC1 [AZD7762] + COc1cccc2cc(-c3nc([C@H]4CC[C@H](C(=O)O)CC4)n4ncnc(N)c34)[nH]c12 [OSI-027] (partner 0.5 µM)
relative viability (NCI-H1734; first compound 0.01 µM): 0.638 | relative viability (NCI-H1734; first compound 0.03162 µM): 0.704 | relative viability (NCI-H1734; first compound 0.1 µM): 0.642 | relative viability (NCI-H1734; first compound 0.3162 µM): 0.374 | relative viability (NCI-H1734; first compound 1 µM): 0.238 | relative viability (NCI-H2342; first compound 0.01 µM): 0.612 | relative viability (NCI-H2342; first compound 0.03162 µM): 0.714 | relative viability (NCI-H2342; first compound 0.1 µM): 0.611 | relative viability (NCI-H2342; first compound 0.3162 µM): 0.586 | relative viability (NCI-H2342; first compound 1 µM): 0.588 | relative viability (NCI-H1793; first compound 0.01 µM): 0.265 | relative viability (NCI-H1793; first compound 0.03162 µM): 0.268 | relative viability (NCI-H1793; first compound 0.1 µM): 0.308 | relative viability (NCI-H1793; first compound 0.3162 µM): 0.299 | relative viability (NCI-H1793; first compound 1 µM): 0.25 | relative viability (HOP-62; first compound 0.01 µM): 0.759 | relative viability (HOP-62; first compound 0.03162 µM): 0.89 | relative viability (HOP-62; first compound 0.1 µM): 0.743 | relative viability (HOP-62; first compound 0.3162 µM): 0.71 | relative viability (HOP-62; first compound 1 µM): 0.552 | relative viability (NCI-H2347; first compound 0.01 µM): 0.433 | relative viability (NCI-H2347; first compound 0.03162 µM): 0.529 | relative viability (NCI-H2347; first compound 0.1 µM): 0.412 | relative viability (NCI-H2347; first compound 0.3162 µM): 0.395 | relative viability (NCI-H2347; first compound 1 µM): 0.356 | relative viability (NCI-H647; first compound 0.01 µM): 0.656 | relative viability (NCI-H647; first compound 0.03162 µM): 0.55 | relative viability (NCI-H647; first compound 0.1 µM): 0.714 | relative viability (NCI-H647; first compound 0.3162 µM): 0.6 | relative viability (NCI-H647; first compound 1 µM): 0.172 | relative viability (EKVX; first compound 0.01 µM): 0.726 | relative viability (EKVX; first compound 0.03162 µM): 0.75 | relative viability (EKVX; first compound 0.1 µM): 0.653 | relative viability (EKVX; first compound 0.3162 µM): 0.604 | relative viability (EKVX; first compound 1 µM): 0.628 | relative viability (SK-MES-1; first compound 0.01 µM): 0.672 | relative viability (SK-MES-1; first compound 0.03162 µM): 0.571 | relative viability (SK-MES-1; first compound 0.1 µM): 0.52 | relative viability (SK-MES-1; first compound 0.3162 µM): 0.173 | relative viability (SK-MES-1; first compound 1 µM): 0.17 | relative viability (NCI-H1355; first compound 0.01 µM): 0.389 | relative viability (NCI-H1355; first compound 0.03162 µM): 0.489 | relative viability (NCI-H1355; first compound 0.1 µM): 0.515 | relative viability (NCI-H1355; first compound 0.3162 µM): 0.443 | relative viability (NCI-H1355; first compound 1 µM): 0.418 | relative viability (NCI-H838; first compound 0.01 µM): 0.429 | relative viability (NCI-H838; first compound 0.03162 µM): 0.374 | relative viability (NCI-H838; first compound 0.1 µM): 0.415 | relative viability (NCI-H838; first compound 0.3162 µM): 0.413 | relative viability (NCI-H838; first compound 1 µM): 0.297 | relative viability (COR-L 105; first compound 0.01 µM): 0.636 | relative viability (COR-L 105; first compound 0.03162 µM): 0.821 | relative viability (COR-L 105; first compound 0.1 µM): 0.543 | relative viability (COR-L 105; first compound 0.3162 µM): 0.472 | relative viability (COR-L 105; first compound 1 µM): 0.406 | relative viability (NCI-H1993; first compound 0.01 µM): 0.577 | relative viability (NCI-H1993; first compound 0.03162 µM): 0.591
